In patent publication US20120165354A1, “TREATMENT METHOD” (GLAXO WELLCOME MANUFACTURING PTE LTD., priority 2009, published 2012):
Counter-ions that a name gives are not always drawn.

Columns and labels:
[1] = test system: subjects with occult or minimally classic subtypes of choroidal neovascularization due to AMD; assay: Best-corrected visual acuity (BCVA, ETDRS/AREDS procedure) in AMD patients, 28-day eye-drop study; format: in vivo, human; settings: for Change from Baseline in BCVA Day 29, Point Estimate: Overall
Protocol: (§1) Three dosing regimens of pazopanib monohydrochloride eye drops (5 mg/mL TID, 2 mg/mL TID, 5 mg/mL QD) were administered for 28 days to 70 subjects with occult or minimally classic subtypes of choroidal neovascularization due to AMD. This study was designed to measure pharmacological activity of topically administered pazopanib in target tissues (choroid and retina) of patients with AMD by weekly evaluation of central retinal lesion thickness as measured by optical coherence tomography (OCT). In addition, the ocular and systemic safety and systemic pharmacokinetics of pazopanib treatment for 28 days were evaluated. Evaluation of efficacy was performed on an exploratory basis by weekly measurement of visual acuity, performing best-corrected visual acuity assessments at screening and day 29.
(§2) Of the total of 70 subjects that were randomized, 28 had been previously treated with anti-angiogenic agents for treatment of macular degeneration and 42 were treatment-naïve. The protocol excluded subjects who had received any treatment for AMD within 60 days of the first dose of study medication in this trial. A total of 68 subjects completed all study assessments, of which 63 completed the assessments of Day 29 visit without receiving any rescue medication. 6 subjects received anti-VEGF rescue medication prior to the Day 29 assessment (1 of 27 in the 5 mg/ml TID arm, 2 of 27 in the 2 mg/ml TID, 3 of 16 subjects in the 5 mg QD arm, which was discontinued per protocol amendment due to feasibility.) Baseline characteristics in the study were similar between treatment groups, with the exception of age and lesion size, which were increased in the 2 mg/ml TID arm.
Sites were trained and certified for visual acuity assessment with the standard procedure developed for the Early Treatment Diabetic Retinopathy Study (ETDRS) and adapted for the Age Related Eye Disease Study (AREDS). Best-corrected visual acuity (BCVA) measurements were performed at screening and Day 29 visits and, at other visits, use of the previous refraction for the visual acuity (VA) assessment was allowed.

[2] = test system: subjects with occult or minimally classic subtypes of choroidal neovascularization due to AMD; assay: Optical coherence tomography central retinal thickness (OCT CRT/CRLT) in AMD patients, 28-day eye-drop study; format: in vivo, human
Protocol: as §1, §2
Sites were certified by a central reading center to collect images to assess Central Retinal Thickness (CRT, subretinal fluid) and Central Retinal Lesion Thickness (CRLT, subretinal fluid and neovascular lesion) on a Stratus OCT 3 instrument weekly. Values were then determined by manual measurement at the reading center. As used herein, “OCT CRLT” means optical coherence tomography central retinal/lesion thickness as determined by manual measurement of the distance between the inner and outer retina, inclusive of subretinal fluid and any choroidal neovascularization (CNV) as measured in the central 1 mm area of the 7 mm posterior pole scan. As used herein, “OCT CRT” means optical coherence tomography central retinal thickness as determined by manual measurement of the distance between the inner and outer retina inclusive of any subretinal fluid as measured in the central 1 mm area of the 7 mm posterior pole scan.

Cc1ccc(Nc2nccc(N(C)c3ccc4c(C)n(C)nc4c3)n2)cc1S(N)(=O)=O [pazopanib monohydrochloride, 5-[[4-[(2,3-dimethyl-2H-indazol-6-yl)methylamino]-2-pyrimidinyl]amino]-2-methylbenzenesulfonamide monohydrochloride]
Change from Baseline BCVA at Day 29, BCVA LSMean (SE) ([1]; 2 mg/ml TID, CFH Y402H genotype CC, N=3): 0.85 (4.07) | Change from Baseline BCVA at Day 29, BCVA LSMean (SE) ([1]; 2 mg/ml TID, CFH Y402H genotype CT, N=10): −1.52 (2.24) | Change from Baseline BCVA at Day 29, BCVA LSMean (SE) ([1]; 2 mg/ml TID, CFH Y402H genotype TT, N=4): 5.43 (3.60) | change in visual acuity ([1]; 5 mg/ml TID group only, enhanced in previously treated group and those with a T allele): Statistically significant increases | Change from Baseline BCVA at Day 29, BCVA LSMean (SE) ([1]; 5 mg/ml TID, CFH Y402H genotype CC, N=7): 0.36 (2.68) | Change from Baseline BCVA at Day 29, BCVA LSMean (SE) ([1]; 5 mg/ml TID, CFH Y402H genotype CT, N=9): 4.09 (2.38) | Change from Baseline BCVA at Day 29, BCVA LSMean (SE) ([1]; 5 mg/ml TID, CFH Y402H genotype TT, N=5): 6.96 (3.18) | Change from Baseline in BCVA at Day 29, Point Estimate ([1]; Naïve Subjects, 2 mg/mL TID): 1.16 | Change from Baseline in BCVA at Day 29, Point Estimate ([1]; Naïve Subjects, 5 mg/mL TID): 3.38 | Change from Baseline in BCVA at Day 29, Point Estimate ([1]; Naïve Subjects, 5 mg/mL once daily): 0.80 | Change from Baseline in BCVA Day 29, Point Estimate ([1]; 2 mg/mL TID): 0.76 | Change from Baseline in BCVA Day 29, Point Estimate ([1]; 5 mg/mL QD): 0.09 | Change from Baseline in BCVA Day 29, Point Estimate ([1]; 5 mg/mL TID): 4.32 | Change from Baseline in BCVA at Day 29, Point Estimate ([1]; Previously Treated Subjects, 2 mg/mL TID): 0.18 | Change from Baseline in BCVA at Day 29, Point Estimate ([1]; Previously Treated Subjects, 5 mg/mL TID): 5.61 | Change from Baseline in BCVA at Day 29, Point Estimate ([1]; Previously Treated Subjects, 5 mg/mL once daily): −0.80 | Change from Baseline in Central Retinal Thickness at Day 29, CRT LSMean ([2]; 2 mg/ml TID eye drops, CFH genotype CC, N=3): 22.15 | Change from Baseline in Central Retinal Thickness at Day 29, CRT LSMean ([2]; 2 mg/ml TID eye drops, CFH genotype CT, N=10): −14.6 | Change from Baseline in Central Retinal Thickness at Day 29, CRT LSMean ([2]; 2 mg/ml TID eye drops, CFH genotype TT, N=4): −45.5 | Change from Baseline in Central Retinal Thickness at Day 29, CRT LSMean ([2]; 5 mg/ml TID eye drops, CFH genotype CC, N=7): 9.23 | Change from Baseline in Central Retinal Thickness at Day 29, CRT LSMean ([2]; 5 mg/ml TID eye drops, CFH genotype CT, N=9): 21.51 | Change from Baseline in Central Retinal Thickness at Day 29, CRT LSMean ([2]; 5 mg/ml TID eye drops, CFH genotype TT, N=5): −88.8 | mean decrease in CRT ([2]; day 29, subjects with the CFH TT genotype, 5 mg/ml TID, statistically significant): 89 micron | changes from baseline in OCT CRT / CRLT ([2]; overall population): no statistically significant changes from baseline
